Laboratory results published in patent US20110287982A1, “CELL CULTURE DEVICE” (priority 2008, published 2011).

Tested on: cardiac tissue generated from cardiomyocytes derived from human ESCs
Test: Electrophysiological recordings of cardiac tissue (CardioSpot) on porous multi-electrode arrays
Assay type: cell-based
Settings: for repolarising potential (delay measured from the first signal): 30 nM E4031, control 140 ms
Description: Beating aggregates are maintained at room temperature in cryo-vials full of culture medium (Human cardiovascular progenitor cells develop from a KDR+embryonic-stem-cell-derived population. Yang L, et al., (2008). […] Culture Medium-StemPro 34 and 10 ng/mL VEGF CardioSpot made using primary or stem cell derived cardiomyocytes are placed onto the porous MEAs. Electrophysiological recordings were performed either through the supporting membrane or from under the membrane in order to get a direct contact of the tissues with recording electrodes. Control recording were performed using the culture medium as well a the solution used for reference molecules ([…], and lidocaine) Pharmacological experiments were carried out using reference compounds to characterise and validate the cardiac tissue generated from cardiomyocytes derived from human ESCs and engineered using the method of invention.

| Compound | repolarising potential (delay measured from the first signal) (after 5 min) [ms] | repolarising potential (delay measured from the first signal) (after 15 min) [ms] | decrease of the amplitude of the electrophysiological signals (30 uM lidocaine, after 6 minutes) [%] | amplitude of the first signal (predominantly dependent of sodium channel opening) (lidocaine, within few minutes) |
| --- | --- | --- | --- | --- |
| Cc1cccc(CCN2CCC(C(=O)c3ccc(NS(C)(=O)=O)cc3)CC2)n1 [E4031] | 155 | 173 |  |  |
| CCN(CC)CC(=O)Nc1c(C)cccc1C [lidocaine] |  |  | 50 | dramatic decrease |
